Assay results as given in patent US8865741B2, “Aminoindane compounds and use thereof in treating pain” (Asana Biosciences, LLC, priority 2011, dated 2014).
Where two headings read alike, the source gives them in different places.

Experiments:
rats = assay: Cutaneous anesthetic activity, cutaneous trunci muscle reflex (CTMR) pin-prick model; assay type: in vivo, rat; conditions: 100 μL lidocaine (2%) alone, sub-cutaneous
Description: Rats were subjected to several days of acclimatization to the environment and the investigator prior to entering the study. About 24 hours before each experiment, the skin on the back of male rats was shaved using electronic clippers. The anesthetic action of test agents, following subcutaneous injection was determined using a “pin-prick” method as described by Khan (Khan et al., Anesthesiology, January 2002, 96(1): 109-116). Injection volumes were standardized at 100 μL, each injection caused a small wheal to develop—the boundary of which was marked with ink. The cutaneous trunci muscle reflex (CTMR) is a reflex movement of the skin due to twitches of the lateral thoracospinal muscles elicited by noxious stimulation of the dorsal cutaneous area. An 18-guage needle was used as the noxious stimulus; six stimuli were presented to an area of ‘normal’ skin to determine baseline sensitivity and this was then repeated in the area of the wheal. […] Data were represented as % maximal possible effect (MPE) where 100% indicates complete lack of response to each of the six needle presentations in the injected area. The extent of local anesthesia was assessed at regular intervals in order to generate efficacy-duration time plots.

[1] = tested on: sodium channel in hTRPV1-N1E115 cells; assay: FLIPR membrane potential assay of sodium channel response in hTRPV1-N1E115 cells, with (47° C.) or without (25° C.) heat activation of hTRPV1; assay type: cell-based; conditions: for hTRPV1-N1E Nav 0.1 mM (% inhibition) 25° C. / hTRPV1-N1E Nav 1 mM (% inhibition) 25° C.: 25° C. (no heat activation of hTRPV1); for hTRPV1-N1E Nav 0.1 mM (% inhibition) 47° C. / hTRPV1-N1E Nav 1 mM (% inhibition) 47° C.: 47° C. (heat activation of hTRPV1); for IC50 / hTRPV1-N1E Nav (% inhibition) 47° C., tested at 0.5 mM: 47° C.; for IC50: read-out: hTRPV1-N1E IC50 (μM) 47° C.; for hTRPV1-N1E Nav (% inhibition) 25° C., tested at 0.5 mM / hTRPV1-N1E Nav (% inhibition) 47° C., tested at 0.5 mM: 0.5 mM (stated in cell, column head 0.1 mM)
From the text: In one embodiment, a modified FLIPR® (Fluorometric Imaging Plate Reader) based assay system was developed which is capable of discriminating between non-specific versus hTRPV1-mediated entry of test compounds. Advantageously, the assay system utilizes heat activated opening of hTRPV1 channels followed by an assessment of internal sodium channel block. The assay allows a permanently charged compound to selectively enter through opened hTRPV1 channels and that compound's potency in inhibiting sodium channels from the cytoplasm side of the same cell can be assessed and quantified.
The assay is readily performed in multi-well assay plates into which cells in growth media are added and incubated under conditions which permit the formation of a confluent monolayer over a period of hours prior to the start of the assay. Conventional culture media and conditions may be utilized. Duplicate cell assay plates are prepared for each experiment.
The spent media from the cell seeded plates is removed on the day of the assay and replaced with Membrane potential Dye-Blue (Molecular Devices). The dye was prepared in assay buffer following manufacturer's instructions. The dye-loaded plate is incubated at room temperature (about 25° C.) for about 30 minutes in order to pre-load the cells with dye. Optionally, the cells may be loaded with the dye simultaneously with adding the test compounds.
The test compounds are diluted in the Assay Buffer and added to each well of a specific 384-well ‘compound plate’, which serves as a source plate for compound addition using the FLIPR® platform. The concentration of compounds in the compound-plate was adjusted to achieve the desired final concentration when added to the cells in the ‘cell-plate’. After completion of the dye incubation period, the dye loaded cell-plates and the compound source plates are inserted into the FLIPR® Tetra™ device with a 384 FLIPR® tip box (Molecular Devices, Inc.) according to manufacturer's instructions. The compounds are robotically added to the dye loaded cell-plates using software integral to the FLIPR® Tetra™ instrument.
Immediately following compound addition, hTRPV1 is activated, in one of the duplicate cell plates, by heating. Specifically, entire multi-well plate containing the compound-cells mixture is incubated at 47° C. for 10 minutes, after which they are returned to room temperature (about 25° C.) for a further 30 minutes. Heat activation of hTRPV1 was omitted from the replicate cell plate which was simply maintained at room temperature for the entire 40 minutes.
A membrane potential response is elicited in the dye- and compound-loaded cells by the addition of veratridine which is a known sodium channel ‘agonist’. As illustrated in an example herein, an agonist plate containing veratridine (Sigma) is prepared in advance and is inserted into suitable devices such as, e.g., the FLIPR® TETRA® device for a “2nd addition” as instructed by the manufacturer. The concentration of veratridine in the ‘agonist plate’ was adjusted to achieve a final concentration of 100 μM when added to the cells in the cell-plate. Final concentrations of veratridine greater or lesser than 100 μM may also be used but the signal measured by the FLIPR®^Tetra™ device or another suitable device may vary accordingly.
The exposure of the cells in the cell-plate to veratridine induces sodium channels in the cells to open and the resulting ion flux produces a membrane potential depolarization that is detected as a fluorescence signal by the FLIPR® ^Tetra™ Device. The activity of test compounds is determined by their ability to attenuate the veratridine-induced fluorescence signal, the most promising compounds are those that show an enhanced activity in the heat-activated cell plate over the non-heat-activated cell plate. […]

[2] = tested on: Male Sprague Dawley (SD) rats; assay: In vivo assay of mechanical nociception (rat pinch model, perisciatic injection); conditions: for Average Time of Analgesia: test compound 0.5%, perisciatic
[3] = molecular target: T1, human Nav1.5 sodium channel (Homo sapiens, UniProt Q14524); assay: Inhibition of sodium channel response in hNav1.5-HEK293 cells (FLIPR, veratridine); assay type: cell-based; conditions: for IC50: average, read-out: HEK Nav 1.5 IC50 (μM) (AVG); for inhibition at 10 min, 0.5 mM / inhibition at 10 min, 1.5 mM: human, HEK-293 cells expressing human Nav1.5 (hNav1.5-HEK-293), pH 7.4; for inhibition at 10 min, 0.5 mM: read-out: HEK Nav 1.5 % inh. @ 0.5 mM; for inhibition at 10 min, 1.5 mM: read-out: HEK Nav 1.5 % inh. @ 1.5 mM
T1 construct: host or cells: HEK-293
Description: C. Method for Assessing the Extent of Inhibition of Sodium Channel Response with Compounds in hNav1.5-HEK293 Cells.
The following assay was used to assess the tendency of the test compounds to block the dominant cardiac sodium channel isoform. Nav1.5 sodium channels are known to be permeable to quaternary sodium channel blockers such as QX-314 and, thus, the assay was performed in the absence of a chemical TRPV1 agonist.
The hNav1.5-HEK-293 cells (CreaCell, France, a human embryonic kidney cell line expressing the human Nav1.5 sodium channel) were cultured in Growth medium (containing 1×DMEM (Gibco)+10% FBS (PAA Gold)+2% Glutamine 100 mM (Gibco)+1% penicillin 10,000 U/mL streptomycin 10,000 μg/mL (Invitrogen)+1.2 mg/mL Geneticin G418 (Invitrogen)) in […] cell bind flasks (Corning). The following steps were followed exactly as mentioned. The spent medium was discarded and the cells rinsed once with PBS-1×. Accutase® (1-2 mL; PAA) solution was added. The plate was placed on a 37° C. warming incubator 3-5 minutes. As soon as cells are detached, 37° C. complete medium (9 mL) was added. The cell suspension was drawn into a sterile pipette and cells homogenized gently to dissociate cell aggregates. The cells were counted using a hemocytometer with Blue Trypan and then centrifuged 5 minutes at 400 g. The cells can be amplified or maintained by seeding […] in a T75 flask (final volume: 15 mL). 8000 cells in 50 μL Growth medium was added to each well of 384-well, clear bottomed, sterile poly-D-lysine coated plates with lid (Greiner-bio one) inside the laminar air-flow. The plates were incubated at 37° C. and 5% CO2 in a CO2 incubator (Thermo) for 48 hours.
On the day of the assay, cells were washed with Assay buffer, which was prepared using the components and amounts in Table 4. The pH was adjusted to 7.4 with NaOH, volume made up to 500 mL with Milli-Q® water.
Assay Buffer was added to the cells and incubated at rt (25° C.) for 10 minutes. The compounds were diluted in assay buffer. The compounds were added and incubated at rt (25° C.) for 10 minutes. Red FMP Dye (MDC) was added to the cells and the plate was incubated at rt (25° C.) for 30 minutes. Veratridine stock (20 mM; Sigma) was prepared in DMSO; veratridine (final concentration of 30 μM) in assay buffer was added to each well of the cell seeded plates in the FLIPR® system and read taken for 10 minutes. Table 5 provides data illustrating the sodium channel activity of the test compounds in response to the presence or absence of heat stimulation in cells expressing hTRPV1. The compounds were tested for differential activity at 25° C. and 47° C. and at two test concentrations. Compounds showing the most promising profiles were further evaluated for IC50 in the 47° C. assay, examples are shown in Table 5.

[4] = lidocaine 2%, total injection 100 μL
[5] = lidocaine 0%, total injection 100 μL
[6] = lidocaine 0%, total injection 200 μL
[7] = lidocaine 2%, total injection 200 μL

T1 sequence (Q14524 whole entry): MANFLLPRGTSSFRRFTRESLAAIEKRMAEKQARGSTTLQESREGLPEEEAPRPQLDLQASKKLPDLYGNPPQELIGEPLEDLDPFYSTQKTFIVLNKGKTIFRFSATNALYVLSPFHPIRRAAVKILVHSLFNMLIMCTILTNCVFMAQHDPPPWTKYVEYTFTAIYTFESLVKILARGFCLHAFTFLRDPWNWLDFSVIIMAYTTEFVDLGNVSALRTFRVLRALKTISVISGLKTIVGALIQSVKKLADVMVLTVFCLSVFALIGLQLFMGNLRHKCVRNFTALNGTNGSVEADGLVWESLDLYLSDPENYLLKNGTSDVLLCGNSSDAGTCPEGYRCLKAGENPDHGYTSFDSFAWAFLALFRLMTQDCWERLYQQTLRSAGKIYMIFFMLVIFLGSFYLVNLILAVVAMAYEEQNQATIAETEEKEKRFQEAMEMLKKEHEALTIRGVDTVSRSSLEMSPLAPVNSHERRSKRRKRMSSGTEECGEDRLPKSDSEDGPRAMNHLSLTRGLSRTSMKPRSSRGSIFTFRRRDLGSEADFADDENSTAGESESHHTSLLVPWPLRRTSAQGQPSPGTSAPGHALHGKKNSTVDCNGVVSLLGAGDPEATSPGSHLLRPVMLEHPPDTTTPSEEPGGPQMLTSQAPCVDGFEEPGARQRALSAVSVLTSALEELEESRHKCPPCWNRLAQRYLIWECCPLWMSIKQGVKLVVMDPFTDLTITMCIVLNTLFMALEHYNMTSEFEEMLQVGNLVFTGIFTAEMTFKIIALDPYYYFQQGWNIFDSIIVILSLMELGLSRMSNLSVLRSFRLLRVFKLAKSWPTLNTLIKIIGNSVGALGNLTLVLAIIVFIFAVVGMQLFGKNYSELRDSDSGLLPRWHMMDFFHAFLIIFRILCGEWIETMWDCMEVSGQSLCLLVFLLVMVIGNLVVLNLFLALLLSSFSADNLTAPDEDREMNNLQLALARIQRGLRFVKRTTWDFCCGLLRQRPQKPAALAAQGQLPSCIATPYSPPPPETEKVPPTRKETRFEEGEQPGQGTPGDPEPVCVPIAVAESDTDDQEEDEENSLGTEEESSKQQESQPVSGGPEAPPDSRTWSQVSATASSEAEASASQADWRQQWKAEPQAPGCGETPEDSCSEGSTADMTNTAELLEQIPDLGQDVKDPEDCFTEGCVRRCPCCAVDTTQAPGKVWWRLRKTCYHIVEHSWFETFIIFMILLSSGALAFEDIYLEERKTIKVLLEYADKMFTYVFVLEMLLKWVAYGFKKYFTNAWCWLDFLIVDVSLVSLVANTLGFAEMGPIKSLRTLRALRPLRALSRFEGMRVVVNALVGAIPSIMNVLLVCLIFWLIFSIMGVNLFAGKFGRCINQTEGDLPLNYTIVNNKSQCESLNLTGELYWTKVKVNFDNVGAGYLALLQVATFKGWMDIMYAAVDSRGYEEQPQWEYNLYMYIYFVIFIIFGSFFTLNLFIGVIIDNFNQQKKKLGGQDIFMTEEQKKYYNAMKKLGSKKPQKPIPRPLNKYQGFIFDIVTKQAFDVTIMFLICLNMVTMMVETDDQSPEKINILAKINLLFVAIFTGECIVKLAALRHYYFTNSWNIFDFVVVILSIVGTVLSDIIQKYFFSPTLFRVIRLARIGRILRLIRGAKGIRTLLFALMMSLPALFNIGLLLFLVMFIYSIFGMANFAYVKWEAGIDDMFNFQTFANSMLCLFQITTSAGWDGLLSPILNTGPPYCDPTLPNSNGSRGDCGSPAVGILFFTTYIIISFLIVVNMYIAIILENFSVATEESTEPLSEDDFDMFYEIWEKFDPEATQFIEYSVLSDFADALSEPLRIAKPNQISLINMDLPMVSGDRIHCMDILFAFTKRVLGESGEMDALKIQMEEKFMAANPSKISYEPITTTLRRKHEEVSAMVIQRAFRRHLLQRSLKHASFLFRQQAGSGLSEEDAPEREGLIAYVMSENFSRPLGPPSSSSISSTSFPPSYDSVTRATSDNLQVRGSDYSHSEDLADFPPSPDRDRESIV

SMILES | time of return of analgesia to baseline (rats) | analgesia (% maximal possible effect) reached (rats; for around 0.5 hours post injection) [%] | hTRPV1-N1E Nav 0.1 mM (% inhibition) 25° C. [1] [%] | hTRPV1-N1E Nav 0.1 mM (% inhibition) 47° C. [1] | hTRPV1-N1E Nav 1 mM (% inhibition) 25° C. [1] | hTRPV1-N1E Nav 1 mM (% inhibition) 47° C. [1] | IC50 ([1]; class symbols) [µM] | Average Time of Analgesia [2, 4] [h] | duration of anti-nociception effect ([2]; 100 μL injection volume, 0.5% compound with 2% lidocaine (Table 8)) | IC50 [3] [µM] | inhibition at 10 min, 0.5 mM [3] [%] | inhibition at 10 min, 1.5 mM [3] [%] | IC50 ([1]; numeric values) [µM] | analgesic effects in the absence of lidocaine ([2]; absence of lidocaine) | Average Time of Analgesia [2, 5] [h] | Average Time of Analgesia [2, 6] [h] | Average Time of Analgesia [2, 7] [h] | hTRPV1-N1E Nav (% inhibition) 25° C., tested at 0.5 mM [1] [%] | hTRPV1-N1E Nav (% inhibition) 47° C., tested at 0.5 mM [1]
CCN(CC)CC(=O)Nc1c(C)cccc1C [lidocaine] | around 2 hours | 100 |  |  |  |  |  |  |  |  |  |  |  |  |  |  |  |  | 
CC[N+]1(CC)CCCCC1CCN(c1ccc(C)cc1)C1Cc2ccccc2C1.[I-] (stereo not shown) [Example 23, 1,1-Diethyl-2-[2-((indan-2-yl)(4-methylphenyl)amino)ethyl]piperidinium iodide] |  |  | 19.7 | 89.6 (N = 2) % | Insoluble | Insoluble | 1 to 10 | 2 |  |  |  |  |  |  |  |  |  |  | 
CC[N+]1(CC)CCCCC1CCN(c1ccccc1F)C1Cc2ccccc2C1.[I-] (stereo not shown) [Example 16, 1,1-Diethyl-2-[2-((2-fluorophenyl)(indan-2-yl)amino)ethyl]piperidinium iodide] |  |  | 0 | 92.9 (N = 2) % | Insoluble | Insoluble | 10 to 100 | 6 | up to 6 hours |  |  |  |  |  |  |  |  |  | 
CC[N+]1(CC)CCCC[C@@H]1CCN(c1ccccc1)C1Cc2ccccc2C1.[I-] [Example 11, (R)-1,1-Diethyl-2-[2-((indan-2-yl)(phenyl)amino)ethyl]piperidinium iodide] |  |  | 0 | 72% | 71 (N = 2) % |  | 10 to 100 | 7 |  | 44 | 97.9 | 97.8 |  |  |  |  |  |  | 
C[N+]1(C)CCCCC1CN(c1ccccc1)C1Cc2ccccc2C1.[I-] (stereo not shown) [Example 3, 1,1-dimethyl-2-[((indan-2-yl)(phenyl)amino)methyl]piperidinium iodide] |  |  | 16 | 67 (N = 2) % | 23 (N = 2) % | 60 (N = 2) % |  | 12 |  | 190 | 77.6 | 99.1 | 37 | analgesic effects of significant duration | 4 | 9 | >15 |  | 
CC[N+]1(CC)CCCC[C@H]1CCN(c1ccccc1)C1Cc2ccccc2C1.[I-] [Example 2, (S)-1,1-diethyl-2-[2-((indan-2-yl)(phenyl)amino)ethyl]piperidinium iodide] |  |  |  |  | 50 (N = 2) % |  |  | 10 |  | 247 | 89.2 | 98.1 | 9 |  | 0 | 4 | >14 | 44 | 89 (N = 2, 0.5 mM) %
C[N+]1(C)CCCC[C@H]1CCN(c1ccccc1)C1Cc2ccccc2C1.[I-] [Example 9, (S)-1,1-Dimethyl-2-[2-((indan-2-yl)(phenyl)amino)ethyl]piperidinium iodide] |  |  |  |  |  |  | 10 to 100 | 5 |  | 647 | 72.4 | 97.2 |  |  |  |  |  | 16 | 77 (N = 2, 0.5 mM) %
C[N+]1(C)CCCC[C@@H]1CCN(c1ccccc1)C1Cc2ccccc2C1.[I-] [Example 10, (R)-1,1-Dimethyl-2-[2-((indan-2-yl)(phenyl)amino)ethyl]piperidinium iodide] |  |  |  |  | 6.5 (N = 2) % |  | 10 to 100 |  |  | 667 | 76.1 | 97.6 |  |  |  |  |  | 24 | 91 (N = 2, 0.5 mM) %
